Results from ChEMBL document CHEMBL1201862, “PubChem BioAssay data set” (2004).
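The compound was tested at five concentrations on cells cultured in 96-well plates, with a 48-hour exposure period. GI50 = concentration required for 50% inhibition of growth.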 Activity calls are given as the source filed them. Cut-off read from the data, not from the text of the source: active = GI50 up to about 1.1 µM and inactive = higher.

Columns and labels:
Assay in all cases: NCI tumour cell line growth inhibition, 48 h
[1] = tested on: SK-MEL-2
[2] = tested on: SNB-75
[3] = tested on: EKVX
[4] = tested on: NCI-H226
[5] = tested on: MDA-MB-231
[6] = tested on: SF-268
[7] = tested on: OVCAR-5
[8] = tested on: HL-60
[9] = tested on: SK-MEL-5
[10] = tested on: SW-620
[11] = tested on: BT-549
[12] = tested on: TK-10
[13] = tested on: MDA-MB-435
[14] = tested on: Hs-578T
[15] = tested on: RPMI-8226
[16] = tested on: HT-29
[17] = tested on: HCC 2998
[18] = tested on: LOX IMVI
[19] = tested on: NCI-H460

Measured: GI50

COC(=O)NC(Nc1ccc(Cl)cc1Cl)(C(F)(F)F)C(F)(F)F
inactive: [1] > 100 µM | [2] > 100 µM | [3] 48.9 µM | [4] > 100 µM | [5] > 100 µM | [6] 60.4 µM | [7] > 100 µM | [8] 29.3 µM | [9] 26.7 µM | [10] 30.9 µM | [11] 17.1 µM | [12] 92.7 µM | [13] 25.1 µM | [14] > 100 µM | [15] 31.7 µM | [16] > 100 µM | [17] 45.7 µM | [18] 40.6 µM | [19] 30 µM

CCOC(=O)/C(C[C@H]1OC(C)(C)O[C@@H]1[C@H]1COC(C)(C)O1)=N/O
inactive: [1] > 100 µM | [3] > 100 µM | [4] > 100 µM | [5] > 100 µM | [6] > 100 µM | [7] > 100 µM | [8] > 100 µM | [9] > 100 µM | [10] > 100 µM | [11] > 100 µM | [12] > 100 µM | [13] > 100 µM | [14] > 100 µM | [15] > 100 µM | [16] > 100 µM | [17] > 100 µM | [18] > 100 µM | [19] > 100 µM

O=C(Cc1ccccc1)NNc1nc(NNC(=O)c2ccncc2)nc(Nc2ccc([N+](=O)[O-])cc2)n1
inactive: [2] > 10 µM | [3] 9.46 µM | [5] > 10 µM | [6] > 10 µM | [7] > 10 µM | [9] > 10 µM | [10] > 10 µM | [11] 9.51 µM | [12] > 10 µM | [13] > 10 µM | [14] > 10 µM | [15] > 10 µM | [16] > 10 µM | [17] > 10 µM | [18] > 10 µM | [19] > 10 µM

N#Cc1c(Cl)cccc1Oc1ccc(S(=O)(=O)N/C(=N\O)Nc2ccc(Cl)cc2)cc1
inactive: [1] 17.6 µM | [3] 15.5 µM | [4] 24.8 µM | [5] 16.3 µM | [6] 19.9 µM | [7] 19.3 µM | [8] 12.1 µM | [9] 17.2 µM | [10] 17.6 µM | [11] 16.4 µM | [12] 16.6 µM | [13] 17.9 µM | [14] 27.4 µM | [15] 30.4 µM | [16] 17.3 µM | [17] 14.7 µM | [18] 16 µM | [19] 17.9 µM

CCC1C(NC(=O)OC)C(=O)N1[C@@H](C)c1ccccc1 (some centres undefined)
inactive: [1] > 100 µM | [2] 82.6 µM | [3] > 100 µM | [4] > 100 µM | [5] > 100 µM | [6] > 100 µM | [7] > 100 µM | [9] > 100 µM | [10] > 100 µM | [11] > 100 µM | [12] > 100 µM | [13] > 100 µM | [14] > 100 µM | [15] > 100 µM | [16] > 100 µM | [17] > 100 µM | [18] > 100 µM | [19] > 100 µM

COc1ccc(-c2cc(-c3ccc(Cl)cc3)n(C3OC(CO)C(O)C(O)C3O)c(=S)c2C#N)cc1 (centres undefined)
inactive: [1] 26.9 µM | [2] 89.7 µM | [5] 37.5 µM | [6] 20.6 µM | [7] 33 µM | [9] 16.8 µM | [10] 48.2 µM | [11] 35.2 µM | [12] 30.3 µM | [13] 75.5 µM | [14] > 100 µM | [15] 30.5 µM | [16] 24.2 µM | [17] 64.9 µM | [18] > 100 µM | [19] 13 µM

CCCCCCCCCCCCCC1=C(O)C(=O)C(CC2=C(O)C(=O)C(CCCCCCCCCCCCC)=C(O)C2=O)=C(O)C1=O
inactive: [1] > 100 µM | [2] 22.3 µM | [3] > 100 µM | [4] > 100 µM | [5] 51.9 µM | [6] 46.3 µM | [7] > 100 µM | [8] 32.8 µM | [9] > 100 µM | [10] > 100 µM | [11] > 100 µM | [12] 61.4 µM | [13] > 10 µM | [14] 36 µM | [16] > 100 µM | [18] > 100 µM

C1CNCCNCCN1
inactive: [1] > 100 µM | [3] > 100 µM | [4] > 100 µM | [5] > 100 µM | [6] > 100 µM | [7] > 100 µM | [8] > 100 µM | [9] > 100 µM | [10] > 100 µM | [11] > 100 µM | [12] > 100 µM | [13] > 100 µM | [14] > 100 µM | [15] > 100 µM | [16] > 100 µM | [17] > 100 µM | [18] > 100 µM | [19] > 100 µM
